pIC50: −log10 of the molar value.

Sequence of human truncated cGAS enzyme (147-522 human cGAS) (Q8N884 147-522): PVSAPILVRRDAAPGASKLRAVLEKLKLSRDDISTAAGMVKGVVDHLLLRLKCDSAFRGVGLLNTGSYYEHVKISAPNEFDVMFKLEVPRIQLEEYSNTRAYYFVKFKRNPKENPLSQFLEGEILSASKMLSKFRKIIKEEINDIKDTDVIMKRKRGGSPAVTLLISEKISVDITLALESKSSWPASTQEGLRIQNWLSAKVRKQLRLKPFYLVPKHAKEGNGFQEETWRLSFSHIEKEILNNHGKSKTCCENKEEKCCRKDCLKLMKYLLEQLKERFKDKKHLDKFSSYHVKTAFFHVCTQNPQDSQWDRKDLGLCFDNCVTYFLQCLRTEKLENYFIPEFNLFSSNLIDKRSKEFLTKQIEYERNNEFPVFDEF

For the first assay, the target named is human truncated cGAS enzyme (147-522 human cGAS) (Homo sapiens (Human), UniProt Q8N884). Briefly: Quantification of cGAS protein inhibition (cGAMP formation measured by LC-MS/MS). The following applies: reported for the potential mixture in solution of co-existing tautomers and/or racemates. It counts as biochemical. An outline of the steps:
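Human cGAS 147-522 (30 nM) in Tris pH 7.5, NaCl, MgCl2, ZnCl2, Tween 20, started with 5 μM ISD 45 bp dsDNA, 0.5 mM GTP and 0.5 mM ATP. Incubated 1 h at room temperature, then quenched with acetonitrile/TFA. cGAMP quantified by LC-MS/MS against a labelled cGAMP internal standard; IC50 from ratio versus compound concentration.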
By pIC50 is commonly meant −log10 of the IC50, conventionally taken in molar units. `COc1cc2c(-n3ccnc3)c(-c3nnc(C(OC)C(F)F)[nH]3)n(C)c2c(F)c1Cl` (stereo not shown) [Example 99, 6-chloro-2-(5-(2,2-difluoro-1-methoxyethyl)-4H-1,2,4-triazol-3-yl)-7-fluoro-3-(1H-imidazol-1-yl)-5-methoxy-1-methyl-1H-indole]: the negative logarithm of the IC50 (pIC50) is 7.19.

In the case of `COCC(c1nnc(-c2c(-n3ccnc3)c3cc(OC)c(Cl)c(F)c3n2C)[nH]1)n1ccnc1` (stereo not shown) [Example 100, 2-(5-(1-(1H-imidazol-1-yl)-2-methoxyethyl)-4H-1,2,4-triazol-3-yl)-6-chloro-7-fluoro-3-(1H-imidazol-1-yl)-5-methoxy-1-methyl-1H-indole], the negative logarithm of the IC50 (pIC50) was 7.19.

For the compound `CCOc1cc2c(-n3ccnc3)c(-c3nnc(C(C)=O)[nH]3)n(C)c2c(F)c1Cl` [Example 101, 1-(5-(6-chloro-5-ethoxy-7-fluoro-3-(1H-imidazol-1-yl)-1-methyl-1H-indol-2-yl)-4H-1,2,4-triazol-3-yl)ethan-1-one], the pIC50 was 6.14.

With `COc1cc2c(-n3ccnc3)c(-c3nnc(C(C)=O)[nH]3)n(C)c2c(F)c1Cl` [Example 102, 1-(5-(6-chloro-7-fluoro-3-(1H-imidazol-1-yl)-5-methoxy-1-methyl-1H-indol-2-yl)-4H-1,2,4-triazol-3-yl)ethan-1-one], the pIC50 is 6.97.

Turning to `COc1cc2c(-n3ccnc3)c(-c3nnc(C(=O)N(C)C)[nH]3)n(C)c2c(C#N)c1Cl` [Example 103, 5-(6-chloro-7-cyano-3-(1H-imidazol-1-yl)-5-methoxy-1-methyl-1H-indol-2-yl)-N,N-dimethyl-4H-1,2,4-triazole-3-carboxamide], the pIC50 is 6.77.

In the case of `COc1cc2c(-n3ccnc3)c(-c3nnc(C(=O)N(C)C)[nH]3)n(C)c2c(F)c1F` [Example 104, 5-(6,7-difluoro-3-(1H-imidazol-1-yl)-5-methoxy-1-methyl-1H-indol-2-yl)-N,N-dimethyl-4H-1,2,4-triazole-3-carboxamide], the pIC50 is 6.50.

For the compound `FC(F)(F)c1nnc(-c2[nH]c3cc(Cl)c(Cl)cc3c2-n2ccnc2)[nH]1` [Example 105, 5,6-dichloro-3-(1H-imidazol-1-yl)-2-(5-(trifluoromethyl)-4H-1,2,4-triazol-3-yl)-1H-indole], the pIC50 is 6.25.

`FC(F)(F)c1nnc(-c2[nH]c3c(Cl)c(Cl)ccc3c2-n2ccnc2)[nH]1` [Example 106, 6,7-dichloro-3-(1H-imidazol-1-yl)-2-(5-(trifluoromethyl)-4H-1,2,4-triazol-3-yl)-1H-indole]: the pIC50 is 7.02.

Regarding `COc1cc2c(-n3ccnc3)c(-c3nnc(C(F)(F)F)[nH]3)[nH]c2cc1Cl` [Example 107, 6-chloro-3-(1H-imidazol-1-yl)-5-methoxy-2-(5-(trifluoromethyl)-4H-1,2,4-triazol-3-yl)-1H-indole], the pIC50 was 7.10.

For `Cn1c(-c2nnc(C(F)(F)F)[nH]2)c(-n2ccnc2)c2cc(Cl)c(Cl)cc21` [Example 108, 5,6-dichloro-3-(1H-imidazol-1-yl)-1-methyl-2-(5-(trifluoromethyl)-4H-1,2,4-triazol-3-yl)-1H-indole], the pIC50 was 6.55.

Take `N#Cc1c(Cl)ccc2c(-n3ccnc3)c(-c3nnc(C(F)(F)F)[nH]3)[nH]c12` [Example 110, 6-chloro-3-(1H-imidazol-1-yl)-2-(5-(trifluoromethyl)-4H-1,2,4-triazol-3-yl)-1H-indole-7-carbonitrile]: the pIC50 is 6.65.

The same assay, now with this note: reported for the potential mixture of co-existing tautomers and/or racemates.
Take `FC(F)(F)c1nnc(-c2[nH]c3c(Cl)c(Cl)ccc3c2-c2cc[nH]n2)[nH]1` [Example 78, 6,7-dichloro-3-(1H-pyrazol-3-yl)-2-(5-(trifluoromethyl)-4H-1,2,4-triazol-3-yl)-1H-indole]: the pIC50 is 5.43.

Take `COc1cc2c(-c3cn[nH]c3)c(-c3nnc(C(C)N(C)C)[nH]3)n(C)c2c(F)c1Cl` (stereo not shown) [Example 80, 1-(5-(6-chloro-7-fluoro-5-methoxy-1-methyl-3-(1H-pyrazol-4-yl)-1H-indol-2-yl)-4H-1,2,4-triazol-3-yl)-N,N-dimethylethan-1-amine]: the pIC50 is 7.41.

For the compound `COCC(c1nnc(-c2c(-c3cn[nH]c3)c3cc(OC)c(Cl)c(F)c3n2C)[nH]1)N(C)C` (stereo not shown) [Example 81, 1-(5-(6-chloro-7-fluoro-5-methoxy-1-methyl-3-(1H-pyrazol-4-yl)-1H-indol-2-yl)-4H-1,2,4-triazol-3-yl)-2-methoxy-N,N-dimethylethan-1-amine], the pIC50 is 7.04.

For the compound `COc1cc2c(-c3cn[nH]c3)c(-c3nnc(C(C)C#N)[nH]3)n(C)c2c(F)c1Cl` (stereo not shown) [Example 82, 2-(5-(6-Chloro-7-fluoro-5-methoxy-1-methyl-3-(1H-pyrazol-4-yl)-1H-indol-2-yl)-4H-1,2,4-triazol-3-yl)propanenitrile], the pIC50 is 7.52.

For the compound `COC[C@@H](O)c1nnc(-c2c(-n3ccnc3)c3cc(OC)c(Cl)c(F)c3n2C)[nH]1` [Example 83, (S)-1-(5-(6-chloro-7-fluoro-3-(1H-imidazol-1-yl)-5-methoxy-1-methyl-1H-indol-2-yl)-4H-1,2,4-triazol-3-yl)-2-methoxyethan-1-ol], the pIC50 was 7.11.

As for `COCC(O)c1nnc(-c2c(-n3ccnc3)c3cc(OC)c(Cl)c(F)c3n2C)[nH]1` (stereo not shown) [Example 83a, 1-(5-(6-chloro-7-fluoro-3-(1H-imidazol-1-yl)-5-methoxy-1-methyl-1H-indol-2-yl)-4H-1,2,4-triazol-3-yl)-2-methoxyethan-1-ol], the pIC50 is 7.20.

Consider `COC[C@H](O)c1nnc(-c2c(-n3ccnc3)c3cc(OC)c(Cl)c(F)c3n2C)[nH]1` [Example 84, (R)-1-(5-(6-chloro-7-fluoro-3-(1H-imidazol-1-yl)-5-methoxy-1-methyl-1H-indol-2-yl)-4H-1,2,4-triazol-3-yl)-2-methoxyethan-1-ol], for which the pIC50 was 7.20.

For the compound `COc1cc2c(-n3ccnc3)c(-c3nnc(OC(C)C)[nH]3)n(C)c2c(F)c1Cl` [Example 85, 6-chloro-7-fluoro-3-(1H-imidazol-1-yl)-2-(5-isopropoxy-4H-1,2,4-triazol-3-yl)-5-methoxy-1-methyl-1H-indole], the pIC50 was 7.04.

`COc1cc2c(-n3ccnc3)c(-c3nnc(F)[nH]3)n(C)c2c(F)c1Cl` [Example 86, 6-chloro-7-fluoro-2-(5-fluoro-4H-1,2,4-triazol-3-yl)-3-(1H-imidazol-1-yl)-5-methoxy-1-methyl-1H-indole]: the negative-log IC50 (pIC50) is 6.58.

`COc1cc2c(-n3ccnc3)c(-c3nnc(F)[nH]3)[nH]c2c(F)c1Cl` [Example 87, 6-chloro-7-fluoro-2-(5-fluoro-4H-1,2,4-triazol-3-yl)-3-(1H-imidazol-1-yl)-5-methoxy-1H-indole]: the negative logarithm of the IC50 (pIC50) was 7.37.

For the compound `COCC(=O)c1nnc(-c2c(-n3ccnc3)c3cc(OC)c(Cl)c(F)c3n2C)[nH]1` [Example 88, 1-(5-(6-chloro-7-fluoro-3-(1H-imidazol-1-yl)-5-methoxy-1-methyl-1H-indol-2-yl)-4H-1,2,4-triazol-3-yl)-2-methoxyethan-1-one], the pIC50 was 7.12.

Take `COCC(F)(F)c1nnc(-c2c(-n3ccnc3)c3cc(OC)c(Cl)c(F)c3n2C)[nH]1` [Example 89, 6-chloro-2-(5-(1,1-difluoro-2-methoxyethyl)-4H-1,2,4-triazol-3-yl)-7-fluoro-3-(1H-imidazol-1-yl)-5-methoxy-1-methyl-1H-indole]: the pIC50 is 7.40.

In the case of `COc1cc2c(-n3ccnc3)c(-c3nnc(N(C)CCO)[nH]3)n(C)c2c(F)c1Cl` [Example 90, 2-((5-(6-chloro-7-fluoro-3-(1H-imidazol-1-yl)-5-methoxy-1-methyl-1H-indol-2-yl)-4H-1,2,4-triazol-3-yl)(methyl)amino)ethan-1-ol], the pIC50 was 7.03.

In the case of `COc1cc2c(-n3ccnc3)c(-c3nnc(N4CC[C@@H](O)C4)[nH]3)n(C)c2c(F)c1Cl` [Example 91, (R)-1-(5-(6-chloro-7-fluoro-3-(1H-imidazol-1-yl)-5-methoxy-1-methyl-1H-indol-2-yl)-4H-1,2,4-triazol-3-yl)pyrrolidin-3-ol], the pIC50 was 6.96.

On to `COc1cc2c(-n3ccnc3)c(-c3nnc(N4CC[C@H](O)C4)[nH]3)n(C)c2c(F)c1Cl` [Example 92, (S)-1-(5-(6-chloro-7-fluoro-3-(1H-imidazol-1-yl)-5-methoxy-1-methyl-1H-indol-2-yl)-4H-1,2,4-triazol-3-yl)pyrrolidin-3-ol], for which the pIC50 was 7.09.

For the compound `COc1cc2c(-n3ccnc3)c(-c3n[nH]c(C(CO)OC)n3)n(C)c2c(F)c1Cl` (stereo not shown) [Example 93, 2-(3-(6-chloro-7-fluoro-3-(1H-imidazol-1-yl)-5-methoxy-1-methyl-1H-indol-2-yl)-1H-1,2,4-triazol-5-yl)-2-methoxyethan-1-ol], the pIC50 is 7.22.

Regarding `COc1cc2c(-n3ccnc3)c(-c3nnc(OCCO)[nH]3)n(C)c2c(F)c1Cl` [Example 94, 2-((5-(6-chloro-7-fluoro-3-(1H-imidazol-1-yl)-5-methoxy-1-methyl-1H-indol-2-yl)-4H-1,2,4-triazol-3-yl)oxy)ethan-1-ol], the negative-log IC50 (pIC50) was 7.14.

As for `COc1cc2c(-n3ccnc3)c(-c3nnc(C(F)(F)CO)[nH]3)n(C)c2c(F)c1Cl` [Example 95, 2-(5-(6-chloro-7-fluoro-3-(1H-imidazol-1-yl)-5-methoxy-1-methyl-1H-indol-2-yl)-4H-1,2,4-triazol-3-yl)-2,2-difluoroethan-1-ol], the pIC50 was 7.25.

In the case of `COc1cc2c(-n3ccnc3)c(-c3nnc(C(O)C(F)F)[nH]3)n(C)c2c(F)c1Cl` (stereo not shown) [Example 96, 1-(5-(6-chloro-7-fluoro-3-(1H-imidazol-1-yl)-5-methoxy-1-methyl-1H-indol-2-yl)-4H-1,2,4-triazol-3-yl)-2,2-difluoroethan-1-ol], the pIC50 is 7.52.

As to `COc1cc2c(-n3ccnc3)c(-c3nnc(C(O)C(F)(F)F)[nH]3)n(C)c2c(F)c1Cl` (stereo not shown) [Example 98, 1-(5-(6-chloro-7-fluoro-3-(1H-imidazol-1-yl)-5-methoxy-1-methyl-1H-indol-2-yl)-4H-1,2,4-triazol-3-yl)-2,2,2-trifluoroethan-1-ol], the pIC50 was 7.43.

The values are drawn from patent publication US12404261B2, “Compounds and compositions for treating conditions associated with cGAS” (Novartis AG, priority 2020, dated 2025).
